Results taken from US6153604A, “Therapeutic substituted guanidines” (Cambridge NeuroScience, Inc., priority 1995, dated 2000).
Structures can show the parent of a compound that is named as a salt.

Columns and labels:
[1] = biological target: sigma receptor; assay: Sigma receptor binding assay ([3H]DTG, guinea pig brain membrane homogenates); details: displacement of [3H]DTG, guinea pig brain membranes
Experimental: Sigma Receptor Binding Assay
Briefly, frozen whole guinea-pig brains (Biotrol, Indianapolis, Ind.) were homogenized in 10 volumes (w/v) of ice-cold 320 mM sucrose using a Brinkman polytron. The homogenate was centrifuged at 1,000×g for 20 minutes at 4° C. The supernatant was centrifuged at 20,000×g for 20 minutes at 4° C. The resulting pellet was resuspended in 10 initial volumes of 50 mM Tris/HCl buffer at pH 7.4 and centrifuged at 20,000×g for 20 minutes at 4° C. The resulting pellet was resuspended in 5 initial volumes ice-cold 50 mM Tris/HCl (pH 7.4), and the final volume was adjusted to yield a protein concentration of 3 mg/ml. Aliquots of 20-ml were stored at -70° C. until used, with no detectable loss of binding.
The protein concentration in the 1-ml final incubation volume was 800 μg/ml, corresponding to 32 mg of brain tissue (original wet weight) and to a tissue concentration within the linear range for specific binding. […] Incubations were terminated after 90 minutes at room temperature by addition of 4 ml of ice-cold 50 mM Tris/HCl (pH 7.4) and rapid filtration of the membrane suspension through Whatman GF/B glass-fiber filters under vacuum, using a 48-well cell harvester (Brandel). The filters were washed 2 times with 4 ml of 50 mM Tris/HCl (pH 7.4). […] IC50 values were determined by non-linear regression analysis.

[2] = biological target: PCP receptor; assay: PCP receptor radioligand binding assay ([3H]MK-801, rat brain membranes); details: read-out: [3H-MK801] IC50; displacement of [3H]MK-801, rat brain membranes

SMILES | IC50 [1] | IC50 [2]
N=C(Nc1cc(C(F)(F)F)ccc1Br)Nc1cccc2ccccc12 [Compd. No. 41 (Table I), N-(1-Naphthyl)-N'-(2-bromo-5-trifluoromethylphenyl)guanidine hydrochloride] | 49.6 nM | 51.1 nM
CSc1ccc(C(F)(F)F)cc1NC(=N)Nc1cccc2ccccc12 [Compd. No. 42 (Table I), N-(1-Naphthyl)-N'-(2-thiomethyl-5-trifluoromethylphenyl)guanidine hydrochloride] | 418 nM | 170 nM
CCc1ccc(Cl)c(NC(=N)Nc2cccc3ccccc23)c1 [Compd. No. 44 (Table I), N-(1-Naphthyl)-N'-(2-chloro-5-ethylphenyl)guanidine hydrochloride] | 4.94 nM | 20.6 nM
CCc1cccc(NC(=N)Nc2cccc3ccccc23)c1 [Compd. No. 45 (Table I)] | 53.8 nM | 39 nM
CSc1ccc(Cl)c(NC(=N)Nc2cccc3ccccc23)c1 [Compd. No. 46 (Table I), N-(1-Naphthyl)-N'-(2-chloro-5-thiomethylphenyl)guanidine hydrochloride] | 25.4 nM | 43 nM
CSc1cccc(NC(=N)Nc2cccc3ccccc23)c1 [Compd. No. 47 (Table I)] | 27 nM | 124 nM
Cc1ccc(Cl)c(NC(=N)Nc2cccc3cccnc23)c1 [Compd. No. 48 (Table I), N-(8-Quinolinyl)-N'-(2-chloro-5-methylphenyl)guanidine hydrochloride] | 989 nM | 32 nM
CN(C(=N)Nc1cccc2ccccc12)c1cc(Cl)ccc1Cl [Compd. No. 50 (Table I), N-(1-Naphthyl)-N'(2,5-dichlorophenyl)-N'-methylguanidine hydrochloride] | 1320 nM | 62 nM
CN(C(=N)Nc1cccc2ccccc12)c1cccc(Cl)c1 [Compd. No. 52 (Table I)] | 2980 nM | 107 nM
Cc1ccc(C)c(N(C)C(=N)Nc2cccc3ccccc23)c1 [Compd. No. 54 (Table I), N-(1-Naphthyl)-N'-(2,5-dimethylphenyl)-N'-methylguanidine hydrochloride] | 1550 nM | 79 nM
Cc1ccc(Cl)c(N(C)C(=N)Nc2cccc3ccccc23)c1 [Compd. No. 55 (Table I), N-(1-Naphthyl)-N'-(2-chloro-5-methylphenyl)-N'-methylguanidine hydrochloride] | 2420 nM | 41 nM
CCc1ccc(Cl)c(N(C)C(=N)Nc2cccc3ccccc23)c1 [Compd. No. 57 (Table I), N-(1-Naphthyl)-N'-(2-chloro-5-ethylphenyl)-N'-methylguanidine hydrochloride] | 136 nM | 32.8 nM
CCc1cccc(N(C)C(=N)Nc2cccc3ccccc23)c1 [Compd. No. 58 (Table I)] | 2540 nM | 37.5 nM
CCc1cccc(N(C)C(=N)Nc2cc(SC)ccc2Br)c1 [Compd. No. 59 (Table I)] | 240 nM | 3.19 nM
CSc1cccc(N(C)C(=N)Nc2cc(SC)ccc2Cl)c1 [Compd. No. 60 (Table I), N-(3-Methylthiophenyl)-N-methyl-N'-(2-chloro-5-methylthiophenyl)guanidine hydrochloride] | 480 nM | 2.43 nM
CCc1ccc(Cl)c(NC(=N)N(C)c2cccc(SC)c2)c1 [Compd. No. 61 (Table I), N-(3-Methylthiophenyl)-N-methyl-N'-(2-chloro-5-ethylphenyl)guanidine hydrochloride] | 178 nM | 12.5 nM
CSc1cccc(N(C)C(=N)Nc2cc(Cl)ccc2Cl)c1 [Compd. No. 62 (Table I), N-(3-Methylthiophenyl)-N-methyl-N'-(2,5-dichlorophenyl)guanidine hydrochloride] | 130 nM | 59.3 nM
CSc1ccc(Cl)c(NC(=N)N(C)c2cccc(C(F)(F)F)c2)c1 [Compd. No. 66 (Table I), N-(3-Trifluoromethylphenyl)-N-methyl-N'-(2-chloro-5-methylthiophenyl)guanidine hydrochloride] | 421 nM | 8.47 nM
